Source: US11530244B2, “Cyclic polypeptides for PCSK9 inhibition” (priority 2018, dated 2022)
Starred links: 1 amine or outer side, 2 acyl side, 3 side chain; linkers in the order of their positions; H or OH if unused. Positions of bridges follow the written chain, without caps; N, C: chain ends. Non-standard residues stand in square brackets, D forms with d. Residues, ends and D or L forms follow the SMILES beside them. ξ: configuration not given here. *: point of attachment. Pro(3R,4S-CMe2) = CC1(C)[C@@H]2[C@@H](C(=O)O)NC[C@@H]21; Pro(trans-4-Ph) = O=C(O)[C@@H]1C[C@@H](c2ccccc2)CN1; Phe(4-COOH) = N[C@@H](Cc1ccc(C(=O)O)cc1)C(=O)O; Trp(5-F) = N[C@@H](Cc1c[nH]c2ccc(F)cc12)C(=O)O; NMePhe(4-F) = CN[C@@H](Cc1ccc(F)cc1)C(=O)O; Bip = N[C@@H](Cc1ccc(-c2ccccc2)cc1)C(=O)O; Phe(4-CN) = N#Cc1ccc(C[C@H](N)C(=O)O)cc1; αMeW = C[C@](N)(Cc1c[nH]c2ccccc12)C(=O)O; X4 = O=C(CCSCc1cccc(CSCCN[*:1])c1)[*:2]; mXylylene = c1cc(C[*:1])cc(C[*:2])c1; X48 = CC(N[*:1])c1ncc(C(=O)[*:2])s1; X54 = c1cc2ccc(C[*:2])cc2cc1C[*:1]; Asu = N[C@@H](CCCCCC(=O)O)C(=O)O; ξAEF = NCCOc1ccc(CC(N)C(=O)O)cc1; NMeL = CN[C@@H](CC(C)C)C(=O)O; αMeP = C[C@@]1(C(=O)O)CCCN1; Nva = CCC[C@H](N)C(=O)O; OBn = c1ccc(CO*)cc1; GABA = NCCCC(=O)O; Mpa = O=C(O)CCS

How the values were obtained:
[1] = biological target: human PCSK9 / human LDLR EGFa domain interaction (Homo sapiens (Human), UniProt Q8NBP7); test: TR-FRET assay of inhibition of the PCSK9-LDLR protein-protein interaction; type: binding; conditions: TR-FRET, 20 nM human PCSK9, 20 nM human LDLR EGFa domain, 2 hours room temperature; read-out: IC50
Sequence of human PCSK9 / human LDLR EGFa domain interaction (Q8NBP7 153-692): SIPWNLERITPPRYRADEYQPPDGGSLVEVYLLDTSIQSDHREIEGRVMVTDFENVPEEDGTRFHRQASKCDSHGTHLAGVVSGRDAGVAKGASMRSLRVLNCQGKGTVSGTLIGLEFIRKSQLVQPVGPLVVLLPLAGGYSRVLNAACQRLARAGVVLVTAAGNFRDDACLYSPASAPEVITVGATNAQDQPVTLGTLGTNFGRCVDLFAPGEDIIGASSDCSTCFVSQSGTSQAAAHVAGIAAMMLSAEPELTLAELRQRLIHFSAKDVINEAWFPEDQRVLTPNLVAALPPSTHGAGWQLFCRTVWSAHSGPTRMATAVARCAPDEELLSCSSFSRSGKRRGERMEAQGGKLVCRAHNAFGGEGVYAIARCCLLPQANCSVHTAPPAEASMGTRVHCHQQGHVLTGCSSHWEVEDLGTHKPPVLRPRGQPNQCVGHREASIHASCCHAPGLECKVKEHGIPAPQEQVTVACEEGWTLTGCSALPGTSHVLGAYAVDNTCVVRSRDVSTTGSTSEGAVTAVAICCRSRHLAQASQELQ
Sequence of human PCSK9 / human LDLR EGFa domain interaction (Q8NBP7 31-152 partner): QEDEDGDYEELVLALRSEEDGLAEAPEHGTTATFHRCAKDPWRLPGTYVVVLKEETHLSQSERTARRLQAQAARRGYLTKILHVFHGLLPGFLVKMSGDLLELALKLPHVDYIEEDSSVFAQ
Procedure: A time-resolved fluorescence resonance energy (TR-FRET) assay was used to measure inhibition of the PCSK9-LDLR protein-protein interaction. Briefly, 20 nM avitag-biotinylated human PCSK9 was incubated with 20 nM his-tagged human LDLR EGFa domain in the presence of 5 nM LANCE Ulight Streptavidin (Perkin Elmer) and 5 nM europium-Anti-6×His (Perkin Elmer) for 2 hours covered at room temperature in buffer containing 50 mM HEPES, 150 mM NaCl, 5 mM CaCl2), 0.01% BSA and 0.01% Surfactant P20. Compounds were tested in dose-response and concentrations giving half-maximal inhibition calculated using a 4-parameter fit equation.

PCSK9 = PCSK9 (Homo sapiens (Human), UniProt Q8NBP7); test: PCSK9 Alexa FRET Standard assay (displacement of AlexaFluor647 tagged cyclic peptide Reagent A); type: binding; conditions: PCSK9 Alexa FRET Standard assay, 0.5 nM PCSK9, 20 nM AF cyclic peptide Reagent A; read-out: IC50
Sequence of PCSK9 (Q8NBP7 153-692): as the sequence (Q8NBP7 153-692) above
Procedure, shortened: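 TR-FRET displacement: 0.5 nM biotinylated PCSK9 with 1.25 nM Strep-Eu and 20 nM AlexaFluor-tagged cyclic peptide (final) in 50 mM HEPES pH 7.4, 0.15 M NaCl, 5 mM CaCl2, 0.01% BSA, 0.01% P20, ≥2 h at room temperature. IC50 from sigmoidal fit, converted to Ki via peptide KD; falling Eu counts flagged false positives.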

Row | IC50 [1] [µM] | IC50 (PCSK9) [µM] | Compound
1 | 0.1 to 1 |  | C[C@@]1(Cc2c[nH]c3ccccc23)NC(=O)CNC(=O)[C@H](CCCCN)NC(=O)CCSCc2cccc(c2)CSC[C@@H](C(N)=O)NC(=O)[C@@H]2CCCN2C(=O)[C@H](Cc2ccc(O)cc2)NC(=O)[C@H](Cc2c[nH]cn2)NC(=O)[C@H](CC(=O)O)NC(=O)[C@H](Cc2c[nH]c3ccc(F)cc23)NC1=O [Compound 212] ([Mpa]KG[αMeW][Trp(5-F)]DHYPC-NH2; linker 1-10 via mXylylene)
2 | 0.1 to 1 |  | CC(=O)N[C@@H]1CC(=O)NCCOc2ccc(cc2)CC(C(N)=O)NC(=O)[C@]2(C)CCCN2C(=O)[C@H](Cc2ccc(O)cc2)NC(=O)[C@H](Cc2cnc[nH]2)NC(=O)[C@H](CC(=O)OCc2ccccc2)NC(=O)[C@H](Cc2c[nH]c3ccc(F)cc23)NC(=O)[C@H](Cc2c[nH]c3ccc(F)cc23)NC(=O)CNC1=O (stereo partly shown) [Compound 321] (Ac-[dD]G[Trp(5-F)][Trp(5-F)]D(OBn)HY[αMeP][ξAEF]-NH2; lactam 1-9)
3 | 0.0001 to 0.1 |  | NCCCC[C@@H]1NC(=O)CCSCc2cccc(c2)CSC[C@@H](C(N)=O)NC(=O)[C@@H]2C[C@@H](c3ccccc3)CN2C(=O)[C@H](Cc2ccc(O)cc2)NC(=O)[C@H](Cc2c[nH]cn2)NC(=O)[C@H](CC(=O)O)NC(=O)[C@H](Cc2c[nH]c3ccc(F)cc23)NC(=O)[C@H](Cc2c[nH]c3ccc(F)cc23)NC(=O)CNC1=O [Compound 293] ([Mpa]KG[Trp(5-F)][Trp(5-F)]DHY[Pro(trans-4-Ph)]C-NH2; linker 1-10 via mXylylene)
4 | 21 to 50 |  | CC(=O)N[C@H]1CSCc2cccc(c2)CSC[C@@H](C(N)=O)NC(=O)[C@@H]2CCCN2C(=O)[C@H](Cc2ccc(O)cc2)NC(=O)[C@H](Cc2cnc[nH]2)NC(=O)[C@H](CC(=O)O)NC(=O)[C@H](Cc2c[nH]c3ccccc23)NC(=O)[C@H](Cc2c[nH]c3ccc(F)cc23)NC(=O)CNC(=O)[C@H](CCCCN)NC1=O [Compound 177] (Ac-CKG[Trp(5-F)]WDHYPC-NH2; linker 1-10 via mXylylene)
5 | 1 to 12.1 |  | CC1(C)[C@@H]2[C@H]3C(=O)N[C@H](C(N)=O)CSCc4cccc(c4)CSCCC(=O)N[C@@H](CCCCN)C(=O)NCC(=O)N[C@@H](Cc4c[nH]c5ccc(F)cc45)C(=O)N[C@@H](Cc4c[nH]c5ccc(F)cc45)C(=O)N[C@@H](CC(=O)O)C(=O)N[C@@H](Cc4c[nH]cn4)C(=O)N[C@@H](Cc4ccc(O)cc4)C(=O)N3C[C@@H]21 [Compound 201] ([Mpa]KG[Trp(5-F)][Trp(5-F)]DHY[Pro(3R,4S-CMe2)]C-NH2; linker 1-10 via mXylylene)
6 | 0.1 to 1 |  | COc1ccc(C[C@@H]2NC(=O)[C@@H]3CCCC/C=C/CO[C@H]4C[C@@H](C(=O)N3)N(C4)C(=O)[C@H](Cc3c[nH]c4ccc(F)cc34)NC(=O)[C@H](Cc3c[nH]c4ccc(F)cc34)NC(=O)[C@@H](C)NC(=O)[C@H](CCCCN)NC(=O)CCSCc3cccc(c3)CSC[C@@H](C(N)=O)NC(=O)[C@]3(C)CCCN3C2=O)cc1 [Compound 508]
7 | 1 to 12.1 |  | NCCCC[C@@H]1NC(=O)CCSCc2cccc(c2)CSC[C@@H](C(N)=O)NC(=O)[C@@H]2CCCN2C(=O)[C@H](Cc2ccc(-c3ccccc3)cc2)NC(=O)[C@H](Cc2c[nH]cn2)NC(=O)[C@H](CC(=O)O)NC(=O)[C@H](Cc2c[nH]c3ccc(F)cc23)NC(=O)[C@H](Cc2c[nH]c3ccc(F)cc23)NC(=O)CNC1=O [Compound 243] ([Mpa]KG[Trp(5-F)][Trp(5-F)]DH[Bip]PC-NH2; linker 1-10 via mXylylene)
8 |  | 21 to 50 | COc1ccc(C[C@@H]2NC(=O)[C@H](Cc3cnc[nH]3)NC(=O)[C@H](CC(=O)O)NC(=O)[C@H](Cc3c[nH]c4ccc(F)cc34)NC(=O)[C@H](Cc3c[nH]c4ccc(F)cc34)NC(=O)[C@@H](C)NC(=O)[C@H](NC(C)=O)CCCCNC(=O)c3ccc(cc3)C[C@@H](C(N)=O)NC(=O)[C@]3(C)CCCN3C2=O)cc1 [Compound 341] (Ac-[dK][dA][Trp(5-F)][Trp(5-F)]DHY(Me)[αMeP][Phe(4-COOH)]-NH2; lactam 1-9)
9 |  | 21 to 50 | CO[C@H](C)[C@@H]1NC(=O)CCSCc2cccc(c2)CSC[C@@H](C(N)=O)NC(=O)[C@]2(C)CCCN2C(=O)[C@H](Cc2ccc(O)cc2)NC(=O)[C@H](Cc2cnc[nH]2)NC(=O)[C@H](CC(=O)O)NC(=O)[C@H](Cc2c[nH]c3ccc(F)cc23)NC(=O)[C@H](Cc2c[nH]c3ccc(F)cc23)NC(=O)CNC1=O [Compound 375] ([Mpa]T(Me)G[Trp(5-F)][Trp(5-F)]DHY[αMeP]C-NH2; linker 1-10 via mXylylene)
10 |  | 21 to 50 | CC1NC(=O)CCSCc2cccc(c2)CSC[C@@H](C(N)=O)NC(=O)[C@]2(C)CCCN2C(=O)[C@H](Cc2ccc(O)cc2)NC(=O)[C@H](Cc2cnc[nH]2)NC(=O)[C@H](CC(=O)O)NC(=O)[C@H](Cc2c[nH]c3ccc(F)cc23)NC(=O)[C@H](Cc2c[nH]c3ccc(F)cc23)NC(=O)C2=CN=C1S2 (stereo partly shown) [Compound 434] ([Mpa][X48][Trp(5-F)][Trp(5-F)]DHY[αMeP]C-NH2; linker 1-9 via mXylylene)
11 |  | 0.00011 to 0.1 | CC(C)C[C@H]1C(=O)N[C@@H](Cc2ccc(O)cc2)C(=O)N2CCC[C@@]2(C)C(=O)N[C@H](C(N)=O)CSCc2cccc(c2)CSCCC(=O)N[C@@H](CCCCN)C(=O)NCC(=O)N[C@@H](Cc2c[nH]c3ccc(F)cc23)C(=O)N[C@@H](Cc2c[nH]c3ccc(F)cc23)C(=O)N[C@H]2CCN1C2=O [Compound 472]

Further lines, the molecule ahead of its results:

Row | Compound | IC50 [1] [µM] | IC50 (PCSK9) [µM]
12 | NCCCC[C@@H]1NC(=O)CCSCc2cccc(c2)CSC[C@@H](C(N)=O)NC(=O)[C@@H]2CCCN2C(=O)[C@@H](Cc2ccc(O)cc2)NC(=O)[C@H](Cc2cnc[nH]2)NC(=O)[C@H](CC(=O)O)NC(=O)[C@H](Cc2c[nH]c3ccc(F)cc23)NC(=O)[C@H](Cc2c[nH]c3ccc(F)cc23)NC(=O)CNC1=O [Compound 164] ([Mpa]KG[Trp(5-F)][Trp(5-F)]DH[dY]PC-NH2; linker 1-10 via mXylylene) | 21 to 50 | 
13 | NCCCC[C@@H]1NC(=O)CCSCc2ccc3ccc(cc3c2)CSC[C@@H](C(N)=O)NC(=O)[C@@H]2CCCN2C(=O)[C@H](Cc2ccc(O)cc2)NC(=O)[C@H](Cc2c[nH]cn2)NC(=O)[C@H](CC(=O)O)NC(=O)[C@H](Cc2c[nH]c3ccc(F)cc23)NC(=O)[C@H](Cc2c[nH]c3ccc(F)cc23)NC(=O)CNC1=O [Compound 206] ([Mpa]KG[Trp(5-F)][Trp(5-F)]DHYPC-NH2; linker 1-10 via X54) | 21 to 50 | 
14 | C[C@H]1NC(=O)[C@H](CCCCN)NC(=O)CCSCc2cccc(c2)CSCCNC(=O)[C@]2(C)CCCN2C(=O)[C@H](Cc2ccc(C#N)cc2)NC(=O)[C@H](Cc2c[nH]cn2)NC(=O)[C@H](CC(=O)O)NC(=O)[C@H](Cc2c[nH]c3ccc(F)cc23)NC(=O)[C@H](Cc2c[nH]c3ccc(F)cc23)NC1=O [Compound 300] (cyclo(DH[Phe(4-CN)][αMeP][X4]K[dA][Trp(5-F)][Trp(5-F)])) | 0.1 to 1 | 
15 | COc1ccc(C[C@@H]2NC(=O)[C@@H](CC(C)C)NC(=O)[C@H](CC(C)C)NC(=O)CCSCc3cccc(c3)CSC[C@@H](C(N)=O)NC(=O)[C@]3(C)CCCN3C(=O)[C@H](Cc3ccc(OC)cc3)NC(=O)[C@H]([C@@H](C)OC)NC(=O)[C@H](CC(C)C)N(C)C(=O)[C@H](Cc3ccc(OC)cc3)NC2=O)cc1 [Compound 037] ([Mpa]L[dL]Y(Me)Y(Me)[NMeL]T(Me)Y(Me)[αMeP]C-NH2; linker 1-10 via mXylylene) | 0.1 to 1 | 
16 | CCC[C@H](NC(C)=O)C(=O)N[C@@H](Cc1c[nH]cn1)C(=O)N(C)[C@@H](Cc1ccc(F)cc1)C(=O)N[C@H]1CSCc2cccc(c2)CSC[C@@H](C(N)=O)NC(=O)[C@@H]2CCCN2C(=O)[C@H](Cc2ccc(O)cc2)NC(=O)[C@H](Cc2c[nH]cn2)NC(=O)[C@H](CC(=O)O)NC(=O)[C@H](Cc2c[nH]c3ccc(F)cc23)NC(=O)[C@H](Cc2c[nH]c3ccc(F)cc23)NC(=O)CNC(=O)[C@H](CCCCN)NC1=O [Compound 143] (Ac-[Nva]H[NMePhe(4-F)]CKG[Trp(5-F)][Trp(5-F)]DHYPC-NH2; linker 4-13 via mXylylene) | 21 to 50 | 
17 | C[C@H]1NC(=O)[C@H](CC(=O)O)NC(=O)[C@H](Cc2c[nH]c3ccc(F)cc23)NC(=O)[C@H](Cc2c[nH]c3ccc(F)cc23)NC(=O)CNC(=O)[C@H](CCCCN)NC(=O)CCSCc2cccc(c2)CSC[C@@H](C(N)=O)NC(=O)[C@]2(C)CCCN2C(=O)[C@H](Cc2ccc(O)cc2)NC1=O [Compound 033] ([Mpa]KG[Trp(5-F)][Trp(5-F)]D[dA]Y[αMeP]C-NH2; linker 1-10 via mXylylene) | 1 to 12.1 | 
18 | COc1ccc(C[C@@H]2NC(=O)[C@H](Cc3cnc[nH]3)NC(=O)[C@H](CC(=O)O)NC(=O)[C@H](Cc3c[nH]c4ccc(F)cc34)NC(=O)[C@H](Cc3c[nH]c4ccc(F)cc34)NC(=O)[C@@H](C)NC(=O)CCCNC(=O)c3ccc(cc3)C[C@@H](C(N)=O)NC(=O)[C@]3(C)CCCN3C2=O)cc1 [Compound 432] ([GABA][dA][Trp(5-F)][Trp(5-F)]DHY(Me)[αMeP][Phe(4-COOH)]-NH2; lactam N-9) |  | 1 to 12.1
19 | COc1ccc(C[C@@H]2NC(=O)[C@H](Cc3cnc[nH]3)NC(=O)[C@H](CC(=O)O)NC(=O)[C@H](Cc3c[nH]c4ccc(F)cc34)NC(=O)[C@H](Cc3c[nH]c4ccc(F)cc34)NC(=O)[C@@H](C)NC(=O)[C@H](CCCCCC(=O)O)NC(=O)CCSCc3cccc(c3)CSCCNC(=O)[C@]3(C)CCCN3C2=O)cc1 [Compound 426] (cyclo([Asu][dA][Trp(5-F)][Trp(5-F)]DHY(Me)[αMeP][X4])) |  | 1 to 12.1
